Assay results: patent US10551384B2, “MTOR kinase mutations and methods of use thereof” (RUTGERS, THE STATE UNIVERSITY OF NEW JERSEY, priority 2016, dated 2020)

Assays:
[1] = biological target: T1, tor2-dg cells expressing TOR2 (Saccharomyces cerevisiae, UniProt P32600); experiment: Yeast serial-dilution drug sensitivity assay, tor2-dg cells expressing TOR2; format: cell-based, S. cerevisiae; conditions: 10-fold serial dilutions on plates containing drug
T1 construct: expressed in transfected cells; host or cells: S. cerevisiae W303 tor2-dg, plasmid pML40-TOR2
From the text: FIGS. 1A-E. Developing a yeast system to assay for mTOR kinase inhibition. (FIG. 1A) Wild type (WT) yeast cells were spread onto YPD plates and tested for sensitivity to structurally diverse mTOR kinase inhibitors by disc halo assay. Rapamycin was used as a positive control. (FIG. 1B) The N-terminus of TOR2 (1-2080 aa) was fused in frame with mTOR kinase domain (2140-2549 aa). The TOR2-mTOR fusion is expressed under the control of TOR2 promoter in a centromeric plasmid. (FIG. 1C) Yeast strain expressing WT TOR2 or TOR2-mTOR fusion was analyzed for expression by immunoblot with an antibody specific for mTOR kinase domain. PGK1 was used as a loading control and extracts from MCF7 breast cells were used as a positive control for mTOR. (FIG. 1D) TOR2-mTOR fusion was expressed in tort-dg and tested for its ability to complement TOR2 function by growth at permissive and restrictive temperatures.
To enhance yeast cell permeability, log phase W303 tort-dg cells were spread evenly on SD-Leu agarose plates. After drying, small sterile filter discs were placed on the surface and 5 μl of indicated mTOR inhibitors or DMSO were applied to each disc with or without adding 5 μl of amphotericin B (10 μM), miconazole (50 μM) or caspofungin (50 μM). Plates were incubated at 37° C. for 3 day. Drug resistance profiles of TOR2-mTOR mutant cells were determined by the spotting assay. […]

[2] = system: SW480 colorectal cancer cells carrying L2185A mutant mTOR alleles; experiment: SRB growth assay of SW480 cells carrying L2185A mutant mTOR; format: cell-based, human; conditions: various concentrations, 2 day
Method: (FIG. 5A) SW480 cells carrying homozygous WT mTOR or L2185A mutant alleles were treated with various concentrations of AZD8055, INK-128, OSI-027 and PP242 for 2 day. Growth of SW480 cells was measured by SRB assay. Data represent means±SD in three independent experiments. (FIG. 5B) SW480 cells carrying homozygous WT and L2185A mutant mTOR allele were treated with a single dose of AZD8055 (100 nM), INK-128 (100 nM), OSI-027 (6,000 nM), and PP242 (2,000 nM) for different times. Cell growth was measured by SRB assay. The drug carrier DMSO was used as a control. Data represent means±SD in three independent experiments. (FIG. 5C) SW480 cells carrying homozygous WT and L2185A mutant mTOR were treated with various concentrations of INK-128, OSI-027, AZD8055 and PP242 for 1 hr. The effect on the level of P-S6K, S6K, P-4E-BP1, 4EB-P1, P-AKT and AKT was analyzed by immunoblot. […] The growth of SW480 cells was measured by SRB assay. Data represent means±SD in three independent experiments.
Cancer cell lines were maintained in DMEM or RPMI 1640, supplemented with 10% fetal bovine serum (Invitrogen) and 1% penicillin/streptomycin (Invitrogen). CRISPR/cas9 technology was used to engineer mutant mTOR allele in SW480 colorectal and H460 lung cancer cells. Briefly, The target sequence for mTOR, […] (SEQ ID NO: 3 was designed through the online tool at crispr.mit.edu, and cloned into pSPCas9(BB)-2A-GFP vector (PX458 in Addgene). Genomic mTOR mutation was engineered using a protocol as described (Ran, et al. (2013). Nature protocols 8, 2281-2308) and was confirmed by targeted sequencing.
Antibodies against tubulin, S6K, phospho-S6K (Thr389), 4E-BP1, phospho-4E-BP1 (Thr37/46), Akt, phospho-Akt (Thr308), and phospho-Akt (Ser473) were purchased from Cell Signaling Technology. […] For drug sensitivity test, cancer cells were seeded in 96-well plates at a density of 2,000 cells per well. 24 hours later, different concentrations of mTOR inhibitors were added in quadruplicate. Cell growth was measured by the sulforhodamine B (SRB) assay as previously described (Vichai, V., and Kirtikara, K. (2006). Nature protocols 1, 1112-1116).

[3] = system: H460 lung cancer cells carrying L2185A mutant mTOR alleles; experiment: SRB growth assay of H460 cells carrying L2185A mutant mTOR; format: cell-based, human; conditions: various concentrations, 2 days
Method: (FIG. 10A) Flag-mTOR(L2185A), when transiently expressed in HEK293T cells, confers drug resistance to mTOR kinase inhibitors. HEK293T cells transiently expressing WT and L2185A mutant Flag-mTOR were treated with various concentrations of INK-128, OSI-027 for 1 hr. The effect on the level of P-S6K, S6K, P-4E-BP1, 4EB-P1, P-AKT and AKT was analyzed by immunoblot. (FIG. 10B) Sequencing verification of genome-engineered SW480 and H460 cells carrying homozygous and heterozygous L2185A mutations in mTOR locus. (FIG. 10C) Independent clones of engineered SW480 cells confer similar drug resistance. Cells were treated with various concentrations of AZD8055 and INK-128 for 2 days. Cell growth was measured by SRB assay. Clones #1, 3 carry heterozygous L2185A mutation. Clones #2, 4 carry homozygous L2185A mutation. […] Cell growth was measured by SRB assay. […] Cell growth was measured by SRB assay. […] The effect on level of P-S6K, P-4E-BP1 and P-AKT was analyzed by immunoblot. […] The growth of H460 cells was measured by SRB assay. […]
Antibodies against tubulin, S6K, phospho-S6K (Thr389), 4E-BP1, phospho-4E-BP1 (Thr37/46), Akt, phospho-Akt (Thr308), and phospho-Akt (Ser473) were purchased from Cell Signaling Technology. […] Cell growth was measured by the sulforhodamine B (SRB) assay as previously described (Vichai, V., and Kirtikara, K. (2006). Nature protocols 1, 1112-1116).

[4] = biological target: T2, tor2-dg cells expressing TOR2-mTOR fusion (UniProt P32600+P42345); format: cell-based, S. cerevisiae; conditions: 10-fold serial dilutions on plates containing drug
T2 construct: fused in frame with mTOR kinase domain (2140-2549 aa); yeast TOR2 N-terminus (1-2080 aa); expressed in transfected cells; host or cells: S. cerevisiae W303 tor2-dg, centromeric plasmid derived from pML40-TOR2
T2 sequence (P32600+P42345 fused with the stated changes): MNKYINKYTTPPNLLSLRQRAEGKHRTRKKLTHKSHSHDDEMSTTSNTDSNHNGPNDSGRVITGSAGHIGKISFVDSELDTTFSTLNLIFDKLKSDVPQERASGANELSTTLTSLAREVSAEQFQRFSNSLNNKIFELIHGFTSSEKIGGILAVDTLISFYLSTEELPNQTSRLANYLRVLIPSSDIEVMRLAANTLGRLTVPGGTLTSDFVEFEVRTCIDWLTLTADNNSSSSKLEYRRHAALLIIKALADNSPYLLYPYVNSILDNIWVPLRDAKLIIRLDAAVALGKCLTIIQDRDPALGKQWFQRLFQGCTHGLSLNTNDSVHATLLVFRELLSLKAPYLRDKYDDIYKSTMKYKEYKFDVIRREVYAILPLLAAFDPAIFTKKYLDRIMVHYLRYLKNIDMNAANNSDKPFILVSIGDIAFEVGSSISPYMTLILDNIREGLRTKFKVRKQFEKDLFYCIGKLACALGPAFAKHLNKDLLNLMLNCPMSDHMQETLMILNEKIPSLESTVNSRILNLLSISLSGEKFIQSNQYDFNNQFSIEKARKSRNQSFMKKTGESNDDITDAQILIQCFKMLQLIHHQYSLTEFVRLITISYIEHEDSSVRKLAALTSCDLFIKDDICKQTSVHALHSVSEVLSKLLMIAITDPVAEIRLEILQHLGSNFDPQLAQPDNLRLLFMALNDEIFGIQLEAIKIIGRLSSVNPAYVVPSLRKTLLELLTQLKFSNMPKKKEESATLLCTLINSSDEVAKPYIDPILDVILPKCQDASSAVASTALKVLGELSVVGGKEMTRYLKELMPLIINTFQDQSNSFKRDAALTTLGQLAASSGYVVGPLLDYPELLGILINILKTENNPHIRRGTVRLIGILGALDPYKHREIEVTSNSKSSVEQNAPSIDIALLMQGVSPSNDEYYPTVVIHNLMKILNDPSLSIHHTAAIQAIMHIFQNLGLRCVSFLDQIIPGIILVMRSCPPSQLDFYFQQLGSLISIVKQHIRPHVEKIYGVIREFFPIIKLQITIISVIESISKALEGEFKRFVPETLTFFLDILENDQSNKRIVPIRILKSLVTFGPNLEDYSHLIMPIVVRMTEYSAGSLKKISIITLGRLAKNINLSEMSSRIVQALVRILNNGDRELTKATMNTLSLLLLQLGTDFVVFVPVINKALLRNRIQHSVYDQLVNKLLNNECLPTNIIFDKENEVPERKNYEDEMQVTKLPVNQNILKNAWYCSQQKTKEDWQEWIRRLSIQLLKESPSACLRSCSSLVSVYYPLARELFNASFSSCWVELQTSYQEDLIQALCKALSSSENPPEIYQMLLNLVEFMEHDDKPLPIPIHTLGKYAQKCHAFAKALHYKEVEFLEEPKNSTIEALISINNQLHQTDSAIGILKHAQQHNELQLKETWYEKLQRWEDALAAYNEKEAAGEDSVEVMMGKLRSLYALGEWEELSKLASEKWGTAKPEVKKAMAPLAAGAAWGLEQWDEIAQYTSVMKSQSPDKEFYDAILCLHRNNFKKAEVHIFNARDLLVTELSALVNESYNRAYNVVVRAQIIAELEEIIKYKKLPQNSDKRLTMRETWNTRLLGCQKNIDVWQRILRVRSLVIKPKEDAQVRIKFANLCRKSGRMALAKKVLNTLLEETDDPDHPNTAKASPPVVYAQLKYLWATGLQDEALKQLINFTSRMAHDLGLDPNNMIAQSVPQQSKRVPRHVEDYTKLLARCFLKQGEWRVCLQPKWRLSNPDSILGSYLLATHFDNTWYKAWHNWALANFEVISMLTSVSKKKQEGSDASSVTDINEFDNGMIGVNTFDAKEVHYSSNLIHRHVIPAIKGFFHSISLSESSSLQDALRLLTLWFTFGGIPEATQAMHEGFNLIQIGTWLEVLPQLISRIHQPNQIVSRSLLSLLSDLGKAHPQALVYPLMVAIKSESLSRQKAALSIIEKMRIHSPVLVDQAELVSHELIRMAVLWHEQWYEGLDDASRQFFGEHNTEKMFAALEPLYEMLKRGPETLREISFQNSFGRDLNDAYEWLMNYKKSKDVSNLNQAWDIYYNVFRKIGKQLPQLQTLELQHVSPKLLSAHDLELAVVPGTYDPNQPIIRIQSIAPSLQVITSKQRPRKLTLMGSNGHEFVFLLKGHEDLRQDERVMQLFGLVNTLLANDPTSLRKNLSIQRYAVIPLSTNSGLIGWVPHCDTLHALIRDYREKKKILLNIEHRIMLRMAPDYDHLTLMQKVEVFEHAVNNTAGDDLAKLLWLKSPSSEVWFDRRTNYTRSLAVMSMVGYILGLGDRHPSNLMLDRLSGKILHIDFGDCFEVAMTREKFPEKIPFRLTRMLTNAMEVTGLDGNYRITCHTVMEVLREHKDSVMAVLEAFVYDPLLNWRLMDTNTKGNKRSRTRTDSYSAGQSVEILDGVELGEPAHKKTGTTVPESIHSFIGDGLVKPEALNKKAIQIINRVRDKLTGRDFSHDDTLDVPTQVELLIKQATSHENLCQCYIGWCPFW
T2 sequence (P41318 whole entry partner, the tested form may be a part): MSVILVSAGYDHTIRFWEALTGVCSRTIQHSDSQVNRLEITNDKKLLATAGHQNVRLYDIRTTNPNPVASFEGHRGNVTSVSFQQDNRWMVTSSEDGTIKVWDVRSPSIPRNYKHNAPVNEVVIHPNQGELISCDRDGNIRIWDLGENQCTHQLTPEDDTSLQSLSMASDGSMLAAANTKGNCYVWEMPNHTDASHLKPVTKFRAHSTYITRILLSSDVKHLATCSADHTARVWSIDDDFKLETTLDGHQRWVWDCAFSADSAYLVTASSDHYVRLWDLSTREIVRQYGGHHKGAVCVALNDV
From the text: The TOR2-mTOR hybrid plasmid was constructed by replacing the C-terminal region of TOR2 of pML40-TOR2 (Alarcon, et al. (1996). Genes & development 10, 279-288) (encoding for 2080-2474 aa) in frame with a DNA fragment corresponding to C-terminal domain of mTOR (encoding for 2140-2549 aa). To construct mutant TOR2-mTOR plasmids, mTOR C-terminal region was amplified by PCR and co-transformed into yeast with XmaI-digested pML40-TOR2 plasmid that excised the TOR2 C-terminal region. The resultant TOR2-mTOR fusion plasmids are constructed in reading frame by gap-repair in yeast.

TOR2-mTOR L2185C mutant = experiment: Yeast spotting assay for drug resistance, TOR2-mTOR L2185C; format: cell-based, S. cerevisiae; conditions: 37° C., amphotericin B present (except OSI-027)
From the text: (§1) FIGS. 4A-C. […] (FIG. 4A) Scheme of a yeast-based screen for drug-resistant mutations in mTOR kinase domain. mTOR kinase domain is amplified by error-prone PCR to generate randomized mutations, which is then recombined in frame into the TOR2-mTOR plasmid by gap-repair in tort-dg cells, and is selected on SC-leucine minus plates. Replica plating is then made onto SC-leucine plates containing DMSO or mTOR kinase inhibitor for selection of drug resistant clones. (FIG. 4B) tor2-dg cells expressing WT or mutant TOR2-mTOR were serially diluted by 10-fold and assayed for sensitivity to different mTOR kinase inhibitors in the presence of amphotericin B. Vector and TOR2 were used as controls. Drug resistant assay was performed at 37° C. in the presence of amphotericin B (except OSI-027). (FIG. 4C) Systematic mutational analysis of L2185 on drug resistance. tort-dg cells expressing WT or mutant TOR2-mTOR carrying all possible mutations at L2185 were serially diluted by 10-fold and tested for sensitivity to different mTOR kinase inhibitors at 37° C.
(§2) To enhance yeast cell permeability, log phase W303 tort-dg cells were spread evenly on SD-Leu agarose plates. After drying, small sterile filter discs were placed on the surface and 5 μl of indicated mTOR inhibitors or DMSO were applied to each disc with or without adding 5 μl of amphotericin B (10 μM), miconazole (50 μM) or caspofungin (50 μM). Plates were incubated at 37° C. for 3 day. Drug resistance profiles of TOR2-mTOR mutant cells were determined by the spotting assay. For this assay, 10-fold serial dilutions of cells were spotted on SD-leu plates in the presence of indicated mTOR inhibitors with or without amphotericin B (200 nM) and incubated at 37° C. for 3 day.

TOR2-mTOR L2185A mutant = experiment: Yeast spotting assay for drug resistance, TOR2-mTOR L2185A; format: cell-based, S. cerevisiae; conditions: 37° C., amphotericin B present (except OSI-027)
From the text: as §1, §2

[5] = system: Wild type (WT) yeast cells; experiment: Disc halo assay of wild type yeast sensitivity to mTOR kinase inhibitors; format: cell-based, S. cerevisiae; conditions: WT yeast on YPD plates; 5 μl on filter disc, BEZ235 5 μM, other mTOR inhibitors 10 μM; 30° C., 3 day
Method: For the halo assay, log phase W303 wild type or tor2-dg cells were spread evenly on YPD agarose plates. […] Plates were incubated at 30° C. (wild type) or 37° C. (tor2-dg) for 3 day.

Compound	drug sensitivity (growth inhibition) of tor2-dg cells expressing TOR2 [1]	drug resistance/sensitivity of cell growth, SW480 L2185A vs WT [2]	drug resistance/sensitivity of cell growth, H460 L2185A vs WT [3]	drug sensitivity of tor2-dg cells expressing TOR2-mTOR [4]	drug resistance/sensitivity of TOR2-mTOR L2185C mutant yeast (TOR2-mTOR L2185C mutant)	drug resistance/sensitivity of TOR2-mTOR L2185A mutant yeast (TOR2-mTOR L2185A mutant)	inhibition of yeast growth (disc halo assay) [5]
Cn1c(=O)n(-c2ccc(C(C)(C)C#N)cc2)c2c3cc(-c4cnc5ccccc5c4)ccc3ncc21 [BEZ235]	poorly inhibited	remains sensitive	remains sensitive	highly sensitive	–	–	–
Nc1ccc(-c2ccc3ncc4ccc(=O)n(-c5cccc(C(F)(F)F)c5)c4c3c2)cn1 [Torin2]	–	remains sensitive	remains sensitive	–	remain sensitive	remain sensitive	inhibit yeast growth
